Measured values taken from patent US20200123620A1, “MiRNA-574-5p AS A BIOMARKER FOR STRATIFICATION OF PROSTAGLANDIN E-DEPENDENT TUMORS” (priority 2017, published 2020).

Tests used:
Type in all cases: cell-based, human
A549 cells = assay: MTT cell proliferation assay; conditions: data not shown
Experimental: For the detection of viable cells, an MTT (3-(4,5-dimethylthiazol-2-yl)-2,5-diphenyltetrazolium bromide) tetrazolium (Carl Roth, Karlsruhe, GER) reduction assay was performed. 24 h prior transfection, A549 cells were seeded at a density of 1×10^4 cells per well in 96-well plates. For the MTT reduction assay, 20 μl of 5 mg/ml MTT (in PBS) was added to the cells in culture and so incubated for 4 h. The medium was removed and 100 μl DMSO (Carl Roth, Karlsruhe, GER) was added. The quantity of formazan was measured by recording changes in the absorbance at 570 nm using a plate reading spectrophotometer. As a reference the wavelength of […] was used to correct for nonspecific background.

mPGES-1 = mPGES-1 expression in transfected A549 cells (qRT-PCR, Western blot); conditions: IL-1β 24 h, then 24 h stimulus-free medium
Experimental: (§1) CUGBP1 and GW182 were transiently depleted using siRNA oligonucleotides. 24 h prior to transfection, A549 cells were seeded at a density of 5×10^5 cells/well in a 6-well plate. 20 pmol/μl siRNA oligonucleotides were transfected using Lipofectamine 2000N (Invitrogen, Karlsruhe, GER) according to manufacturer's instructions. For GW182 knockdown, MISSION® siRNA SAS1_Hs01_00244664 (Sigma-Aldrich, Darmstadt. GER) were used, respectively. For CUGBP1 knockdown a previously published siRNA (5′-GCUGUUUAUUGGUAUGAUU-3′; SEQ ID NO:5) was used for our experiments. As control, a siRNA with an unspecific sequence was used (5′-UCUCUCACAACGGGCAUUU-3′; SEQ ID NO: 6). Cells were harvested 24 h and 48 h after transfection. The efficiency of CUGBP1 and GW182 knockdown was determined by qRT-PCR, Western blot and immunofluorescence staining.
24 h prior to transfection, A549 cells were seeded at a density of 5×10^5 per well in a 6-well plate. 20 pmol/μl miRIDIAN miR-574-5p mimics (HM10794, Sigma-Aldrich, Darmstadt, GER) or negative control (HMC0002, Sigma-Aldrich, Darmstadt, GER) were transfected using Lipofectamine 2000® according to the manufacturer's instructions. In the same way, the A549 cells were transfected with 40 pmol/μl miR-574-5p-LNA™ inhibitor (4101451-001) or negative control (199006-001, Exiqon, Kopenhagen, DEN) for the knockdown of miR-574-5p. The transfection efficiency was determined by qRT-PCR.
(§2) 1 μg of DNase-treated RNA was used for reverse transcription using High-Capacity RNA-to-cDNA Kit (Applied Biosystems, ThermoFisher Scientific, Waltham, USA) according to manufacturer's instructions. […] 1 μl cDNA (1:2 diluted) was used per reaction. β-Actin was used as endogenous control to normalize variations in cDNA quantities in different samples.
(§3) To obtain a whole cell lysate, A549 cells were lysed in T-PER™ tissue protein extraction reagent (Life Technologies, ThermoFisher Scientific, Waltham, USA) for 30 min at 4° C. […] The protein content was determined by Bradford assay (BioRad Laboratories, Hercules, USA). […]

COX-2 = COX-2 expression in transfected A549 cells (qRT-PCR, Western blot); conditions: mRNA and protein
Experimental: as §1, with “Cells were harvested 24 h and 48 h after transfection.” left out
as §2, §3

5′-GCUGUUUAUUGGUAUGAUU-3′ (listed as RNA, chemistry not given here) [ΔCUGBP1]
IL1β-induced cell proliferation of A549 cells (A549 cells): enhanced
mPGES-1 protein expression (mPGES-1; Western blot): strongly upregulated
mPGES-1 3′UTR isoform expression (mPGES-1; qRT-PCR): further increases
mPGES-1 mRNA expression (mPGES-1; qRT-PCR): significantly upregulates
COX-2 level (COX-2): uninfluenced
